Laboratory results as given in BindingDB's records for doi:10.7270/Q2ZW1JC6 (Nmmlsc, 2016).

Biological target: Ras-related protein Rab-2A (Canis lupus familiaris, UniProt P61105)
Experiment: Rab2 wildtype GTP-binding inhibitors, SAR follow-up, biochemical, pyrazoline series, Bodipy-FL-GTP, flow cytometry, multiplex (AID 2045)

Sequence of Ras-related protein Rab-2A (P61105 whole entry): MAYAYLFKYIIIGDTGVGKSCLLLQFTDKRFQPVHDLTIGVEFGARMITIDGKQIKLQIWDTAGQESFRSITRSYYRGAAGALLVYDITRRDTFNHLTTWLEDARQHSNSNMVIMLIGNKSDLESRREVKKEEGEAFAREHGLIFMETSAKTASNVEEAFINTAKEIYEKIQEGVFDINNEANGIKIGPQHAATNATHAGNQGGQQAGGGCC

| Structure (SMILES) | EC50 [µM] |
| --- | --- |
| CN(C)c1ccc(C2CC(c3ccc(Br)cc3)=NN2c2ccccc2)cc1 (stereo not given) [UNM-0000305846] | > 30 |
| CN(C)c1ccc(C2CC(c3ccc(Cl)cc3)=NN2c2ccccc2)cc1 (stereo not given) [UNM-0000305847] | > 30 |
| COc1ccc(C2=NN(c3ccccc3)C(c3ccc(OC)c(OC)c3C(=O)O)C2)cc1 (stereo not given) [UNM-0000305848] | > 30 |
| Cc1ccccc1[N+]1=N[C-](c2ccccc2)CC1c1cccc([N+](=O)[O-])c1 (stereo not given) [UNM-0000305854] | > 30 |
| COc1ccccc1N1N=C(c2ccccc2)CC1c1ccccc1 (stereo not given) [UNM-0000305855] | > 30 |
| O=[N+]([O-])c1cccc(C2C[C-](c3ccccc3)N=[N+]2c2ccccc2)c1 (stereo not given) [UNM-0000305857] | > 30 |
| COc1ccc(C2CC(c3ccc(Cl)cc3)=NN2c2ccccc2)cc1OC (stereo not given) [UNM-0000305858] | > 30 |
| FC(F)(F)c1cccc(N2N=C(c3ccc(Cl)cc3)CC2c2ccccc2Cl)c1 (stereo not given) [UNM-0000305859] | > 30 |
| COc1ccc(C2=NN(c3ccccc3F)C(c3ccc(F)cc3)C2)cc1 (stereo not given) [UNM-0000305860] | > 30 |
| COc1ccc(C2=NN(c3ccc(Cl)cc3)C(c3ccccc3F)C2)cc1 (stereo not given) [UNM-0000305863] | > 30 |
| COc1ccc(C2CC(c3ccc(F)cc3)=NN2c2ccccc2)cc1OC (stereo not given) [UNM-0000305864] | > 30 |
| CN(C)c1ccc(C2CC(c3ccc(F)cc3)=NN2c2ccccc2)cc1 (stereo not given) [UNM-0000305866] | > 30 |
| COc1ccc(C2CC(c3ccccc3)=NN2c2ccc(C(N)=O)cc2)cc1 (stereo not given) [UNM-0000305870] | > 30 |
| COc1ccc(C2CC(c3ccccc3)=NN2c2ccc(C(=O)O)cc2)cc1 (stereo not given) [UNM-0000306085] | > 30 |
| COc1ccc(C2CC(c3ccccc3F)=NN2c2ccc(S(N)(=O)=O)cc2)cc1 (stereo not given) [UNM-0000306110] | > 30 |
| COc1ccc(C2CC(c3ccccc3Br)=NN2c2ccc(S(N)(=O)=O)cc2)cc1 (stereo not given) [UNM-0000306112] | > 30 |
| COc1ccc(C2CC(c3cccc(Br)c3)=NN2c2ccc(S(N)(=O)=O)cc2)cc1 (stereo not given) [UNM-0000306113] | > 30 |
| COc1ccc(C2CC(c3cccc(Cl)c3)=NN2c2ccc(S(N)(=O)=O)cc2)cc1 (stereo not given) [UNM-0000306134] | > 30 |
| COc1ccc(C2CC(c3ccc(Br)cc3)=NN2c2ccc(S(N)(=O)=O)cc2)cc1 (stereo not given) [UNM-0000306138] | > 30 |
| NS(=O)(=O)c1ccc(N2N=C(c3ccccc3)CC2c2cccc(Br)c2)cc1 (stereo not given) [UNM-0000306147] | > 30 |
| Cc1ccccc1C1CC(c2ccccc2)=NN1c1ccc(S(N)(=O)=O)cc1 (stereo not given) [UNM-0000306148] | > 30 |
| COc1ccc(C2CC(c3ccccc3C)=NN2c2ccc(S(N)(=O)=O)cc2)cc1 (stereo not given) [UNM-0000306152] | > 30 |
| COc1ccc(C2CC(c3cccc(C)c3)=NN2c2ccc(S(N)(=O)=O)cc2)cc1 (stereo not given) [UNM-0000306153] | > 30 |
| NS(=O)(=O)c1ccc(N2N=C(c3ccccc3)CC2c2ccc(Br)cc2)cc1 (stereo not given) [UNM-0000306160] | > 30 |
| NS(=O)(=O)c1ccc(N2N=C(c3ccccc3)CC2c2cccc(Cl)c2)cc1 (stereo not given) [UNM-0000306161] | > 30 |
